Active and inactive are the calls of the source. The rule behind the calls is not given here.
Columns and labels:
[1] = Stability in human liver microsomes assessed as parent compound remaining at 15 uM in absence of NADPH incubated for 60 mins; format: ADME, Microsome; conditions: for remaining at 1 h, 15 µM: liver microsomes, read-out: Stability; for Stability: microsomes, 1 h, 15 µM
[2] = Inhibition of human recombinant beta-tryptase pre-incubated for 3 hrs before N-tert-butoxycarbonyl-Gln-Ala-Arg-AMC substrate addition and measured every 30 secs for 15 mins by spectrometry
[3] = Stability in human liver microsomes assessed as parent compound remaining at 15 uM in presence of NADPH incubated for 60 mins; format: ADME, Microsome; conditions: for remaining at 1 h, 15 µM: liver microsomes, read-out: Stability; for Stability: microsomes, 1 h, 15 µM
[4] = Stability in human liver microsomes assessed as parent compound remaining at 15 uM in presence of UDPGA incubated for 60 mins; format: ADME, Microsome; conditions: for remaining at 1 h, 15 µM: liver microsomes, read-out: Stability
Tryptase beta-2 = target: T1, Tryptase beta-2 (Mus musculus, UniProt P21845); experiment: Inhibition of mouse MCP6 pre-incubated for 3 hrs before N-tert-butoxycarbonyl-Gln-Ala-Arg-AMC substrate addition and measured every 30 secs for 15 mins by spectrometry
T1 sequence (P21845 whole entry): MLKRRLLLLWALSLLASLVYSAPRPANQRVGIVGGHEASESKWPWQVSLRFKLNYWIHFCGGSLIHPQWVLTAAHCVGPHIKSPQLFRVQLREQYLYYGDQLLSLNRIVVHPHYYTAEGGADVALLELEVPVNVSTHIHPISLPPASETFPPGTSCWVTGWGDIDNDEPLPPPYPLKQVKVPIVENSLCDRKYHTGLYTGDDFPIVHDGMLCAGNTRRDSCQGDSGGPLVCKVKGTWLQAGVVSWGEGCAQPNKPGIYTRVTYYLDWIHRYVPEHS

[5] = Clearance in C57BL/6 mouse at 5 mg/kg, iv measured over 0.25 to 24 hrs by LC-MS/MS analysis; format: ADME, organism-based; conditions: in vivo
[6] = Half life in C57BL/6 mouse at 5 mg/kg, iv measured over 0.25 to 24 hrs by LC-MS/MS analysis; format: ADME, organism-based; conditions: in vivo
[7] = Solubility of the compound; format: physicochemical
[8] = Time for Clast in C57BL/6 mouse at 50 mg/kg, po measured over 0.25 to 24 hrs by LC-MS/MS analysis; format: ADME, organism-based; conditions: in vivo
[9] = Lipophilicity, logD of the compound at pH 7.4; format: physicochemical; conditions: buffer
[10] = Tmax in C57BL/6 mouse at 50 mg/kg, po measured over 0.25 to 24 hrs by LC-MS/MS analysis; format: ADME, organism-based; conditions: in vivo
[11] = Time for Clast in C57BL/6 mouse at 5 mg/kg, iv measured over 0.25 to 24 hrs by LC-MS/MS analysis; format: ADME, organism-based; conditions: in vivo
Mus musculus = experiment: Inhibition of tryptase activity in tumors of mouse xenografted with human HMC1 cells at 10 mg/kg, iv dosed at time 0 and again 24 hrs later and measured at 24 to 48 hrs after second dose; format: functional, organism-based

| Compound | remaining at 1 h, 15 µM [1] [%] | IC50 [2] [nM] | remaining at 1 h, 15 µM [3] [%] | remaining at 1 h, 15 µM [4] [%] | IC50 (Tryptase beta-2) [nM] | half-life [6] [min] | other results |
| --- | --- | --- | --- | --- | --- | --- | --- |
| NCc1cccc(C2CCN(C(=O)c3cc(O)c(O)c(Cl)c3)CC2)c1 | 28 | 339 | 29 | 18 | 17500 |  |  |
| NCc1cccc(C2CCN(C(=O)c3ccc(O)c(O)c3)CC2)c1 | 43 | 452 | 52 | 53 | 2310 | 45.6 | clearance [5]: 519 mL/min/kg |
| NCc1ccc2c(c1)C1(CCN(C(=O)c3ccc(O)c(O)c3)CC1)CO2 | 94 | 635 |  | 87 | 2540 |  | Stability [3]: Stable |
| NCc1ccc2c(c1)C1(CCN(C(=O)c3cccc(-c4cccc(B(O)O)c4)c3)CC1)CO2 | 85 | 1220 | 96 | 94 | 1140 | > 360 | solubility [7]: Soluble; Time [8]: 8 h; logD [9]: 1.22; Tmax [10]: 30 min; Time [11]: 24 h |
| NCc1ccc2c(c1)C1(CCN(C(=O)c3cc(O)c(O)c(Cl)c3)CC1)CO2 |  | 238 |  |  | 11700 | > 360 | solubility [7]: Soluble; Time [8]: 24 h; Tmax [10]: 15 min; Time [11]: 8 h |
| COc1cc(C(=O)N2CCC(c3cccc(CN)c3)CC2)cc(O)c1O |  | 925 |  |  | 7430 |  |  |
| CONC(=O)c1cc(C(=O)N2CCC(c3cccc(CN)c3)CC2)ccc1O | 81 | 3310 | 84 | 68 | 455 |  |  |
| COc1cc(C(=O)N2CCC3(CC2)COc2ccc(CN)cc23)cc(O)c1O |  | 953 | 74 | 72 | 11800 |  | Stability [1]: Stable |
| NCc1cccc(C2CCN(C(=O)c3cccc(-c4cccc(B(O)O)c4)c3)CC2)c1 | 1 | 843 | 2 | 1 | 1420 | 216 | clearance [5]: 52.5 mL/min/kg |
| NCc1ccc2c(c1)C1(CCN(C(=O)c3cccc(-c4cccc5c4COB5O)c3)CC1)CO2 |  | 1500 | 82 | 82 | 2890 |  | inhibition (Mus musculus): inactive; logD [9]: 1.69 |
| CONC(=O)c1ccc(C(=O)N2CCC3(CC2)COc2ccc(CN)cc23)cc1O |  | 43.4 |  |  |  |  | Stability [1]: Stable; Stability [3]: Stable; Stability ([4]; microsomes, 1 h, 15 µM): Stable |
| CSc1sc(C(=O)N2CCC(c3cccc(CN)c3)CC2)cc1-c1cccc2c1COB2O |  | 14.2 |  |  |  |  |  |
| NCc1ccc2c(c1)C1(CCN(C(=O)c3ccc(Cl)c(-c4cccc(B(O)O)c4)c3)CC1)CO2 |  | 1100 |  |  | 599 |  |  |
